≈ marks a conversion by molar mass, not a printed value.
Key:
[1] = system: Pseudomonas aeruginosa ATCC 10145; experiment: Minimum Inhibitory Concentration (MIC), modified microbroth dilution; assay type: cell-based; conditions: Pseudomonas aeruginosa, ATCC10145; P. aeruginosa (10145); overnight incubation (18 hours); read-out: MIC50 P. Aeruginosa
E. Coli ATCC 25922 = experiment: as above; assay type: cell-based; conditions: Escherichia coli, ATCC25922; E. coli (25922); overnight incubation (18 hours); read-out: MIC50 E. coli
[2] = system: Staphylococcus aureus ATCC 27660; experiment: as above; assay type: cell-based; conditions: Staphylococcus aureus, ATCC27660; S. aureus (27660); overnight incubation (18 hours); read-out: MIC50 S. aureus
[3] = system: Enterococcus faecalis ATCC 29212; experiment: as above; assay type: cell-based; conditions: Enterococcus faecalis, ATCC29212; E. faecalis (29212); overnight incubation (18 hours); read-out: MIC50 E. faecalis
[4] = Cytotoxicity colorimetric (tetrazolium) assay; assay type: cell-based, mouse; conditions: mouse, NIH/3T3 cells (CRL-1658), NIH/3T3 cells; one hour with compound in serum-free media
Protocol: (§1) Cytotoxicity of the compounds was evaluated in a colorimetric assay using a transformed human liver cell line (HepG2, HB-8065) and an embryonic mouse cell line (NIH/3T3 cells, CRL-1658). This assay measures the bioreduction of a novel tetrazolium compound to a soluble formazan product by viable cells. HepG2 cells were seeded in 96 well plates at 2×10^4 cells/well in MEM medium with 10% fetal bovine serum (FBS) 24 hours prior to use. NIH/3T3 cells were seeded in 96 well plates at 2×10^4 cells/well in DMEM medium with 10% bovine calf serum (BCS) 24 hours prior to use. Cell monolayers were rinsed in serum-free media and incubated for one hour with compounds in serum-free media. After incubation, the media is replaced with serum supplemented media and live cells were measured using the Cell Titer 96 Aqueous […] Assay kit (Promega, Madison, Wis.). EC50 values were determined using a four parameter logistic equation: Y=Bottom+(Top-Bottom)/(1+10̂((LogEC50−X)*HillSlope)).
(§2) Actual results from a representative cytotoxicity assay are shown below in Table 2. Data is expressed as EC50 in μg/mL.

[5] = system: Klebsiella pneumoniae ATCC 13883; experiment: Minimum Inhibitory Concentration (MIC), modified microbroth dilution; assay type: cell-based; conditions: Klebsiella pneumoniae, ATCC13883; K. pneumoniae (13883); overnight incubation (18 hours); read-out: MIC50 K. Pnuemnoiae
[6] = Cytotoxicity colorimetric (tetrazolium) assay; assay type: cell-based, human; conditions: human, HepG2 cells (HB-8065), HepG2 cells; one hour with compound in serum-free media
Protocol: as §1, §2

| MIC50 [1] | MIC50 (E. Coli ATCC 25922) | MIC50 [2] | MIC50 [3] | MIC50 [5] | Structure (SMILES) | EC50 at 1 h [4] | EC50 at 1 h [6] |
| --- | --- | --- | --- | --- | --- | --- | --- |
| 25 µg/mL (≈ 44 µM) | 50 µg/mL (≈ 87.9 µM) | 6.25 µg/mL (≈ 11 µM) | > 50 µg/mL | > 50 µg/mL | NCCc1cc(CCN)cc(-c2csc(-c3cccc(-c4nc(-c5cc(CCN)cc(CCN)c5)cs4)c3)n2)c1 [Compound 135] | 34.5 µg/mL (≈ 60.6 µM) | 134 µg/mL (≈ 236 µM) |
| 50 µg/mL (≈ 123 µM) | > 50 µg/mL | 25 µg/mL (≈ 61.5 µM) | 50 µg/mL (≈ 123 µM) | 50 µg/mL (≈ 123 µM) | NCCc1cc(CCN)cc(-c2csc(-c3cccc(-c4nccs4)c3)n2)c1 [Compound 136] | 250 µg/mL (≈ 615 µM) | 4.12 µg/mL (≈ 10.1 µM) |
| 25 µg/mL (≈ 60.3 µM) | 50 µg/mL (≈ 121 µM) | 6.25 µg/mL (≈ 15.1 µM) | 25 µg/mL (≈ 60.3 µM) |  | NCCCn1cc(-c2ccc3oc4ccc(-c5cnn(CCCN)c5)cc4c3c2)cn1 [Compound 157] | 713 µg/mL (≈ 1720 µM) | 461 µg/mL (≈ 1110 µM) |
| 25 µg/mL (≈ 43.8 µM) | 6.25 µg/mL (≈ 11 µM) | 6.25 µg/mL (≈ 11 µM) | 25 µg/mL (≈ 43.8 µM) | 25 µg/mL (≈ 43.8 µM) | N=C(N)NCCc1cc(CCNC(=N)N)cc(-c2cccc(-c3cc(CCNC(=N)N)cc(CCNC(=N)N)c3)c2)c1 [Compound 116] | 676 µg/mL (≈ 1180 µM) | 974 µg/mL (≈ 1710 µM) |
| 50 µg/mL (≈ 111 µM) | 50 µg/mL (≈ 111 µM) | 25 µg/mL (≈ 55.5 µM) | 50 µg/mL (≈ 111 µM) | 50 µg/mL (≈ 111 µM) | NCCc1cc(C#Cc2ccc(C#Cc3cc(CCN)cc(CCN)c3)cc2)cc(CCN)c1 [Compound 198] | 282 µg/mL (≈ 626 µM) | 185 µg/mL (≈ 411 µM) |
| 25 µg/mL (≈ 46.8 µM) | 12.5 µg/mL (≈ 23.4 µM) | 0.78 µg/mL (≈ 1.46 µM) | 12.5 µg/mL (≈ 23.4 µM) | 50 µg/mL (≈ 93.5 µM) | N=C(N)NCCc1cccc(-c2coc(-c3cccc(-c4nc(-c5cccc(CCNC(=N)N)c5)co4)c3)n2)c1 [Compound 134] | 33.4 µg/mL (≈ 62.5 µM) | 70.9 µg/mL (≈ 133 µM) |
| 25 µg/mL (≈ 40.5 µM) | 3.13 µg/mL (≈ 5.07 µM) | 1.56 µg/mL (≈ 2.53 µM) | 6.25 µg/mL (≈ 10.1 µM) | 3.13 µg/mL (≈ 5.07 µM) | N=C(N)NCCCc1cccc(-c2ccc3c4ccc(-c5cccc(CCCNC(=N)N)c5)cc4n(CCCNC(=N)N)c3c2)c1 [Compound 158] | 131 µg/mL (≈ 212 µM) | 100 µg/mL (≈ 162 µM) |
| 25 µg/mL (≈ 46.8 µM) | 25 µg/mL (≈ 46.8 µM) | 0.78 µg/mL (≈ 1.46 µM) | 3.13 µg/mL (≈ 5.85 µM) | 12.5 to 25 µg/mL (≈ 23.4 to 46.8 µM) | N=C(N)NCCc1cccc(-c2cc(-c3cccc(-c4cc(-c5cccc(CCNC(=N)N)c5)on4)c3)no2)c1 [Compound 129] | 35.8 µg/mL (≈ 66.9 µM) | 57 µg/mL (≈ 107 µM) |
| > 50 µg/mL | > 50 µg/mL | 50 µg/mL (≈ 151 µM) | 25 µg/mL (≈ 75.4 µM) | > 50 µg/mL | NCCc1cccc(-c2coc(-c3cccc(-c4ncco4)c3)n2)c1 [Compound 133] | 70.2 µg/mL (≈ 212 µM) | 130 µg/mL (≈ 392 µM) |
| 6.25 µg/mL (≈ 10.4 µM) | 3.13 µg/mL (≈ 5.23 µM) | 0.195 µg/mL (≈ 0.326 µM) | 6.25 µg/mL (≈ 10.4 µM) | 6.25 µg/mL (≈ 10.4 µM) | NCCCOc1cc(OCCCN)cc(-c2cccc(-c3cccc(-c4cc(OCCCN)cc(OCCCN)c4)c3)c2)c1 [Compound 144] | 320 µg/mL (≈ 534 µM) | 448 µg/mL (≈ 748 µM) |
| 12.5 µg/mL (≈ 21.6 µM) | 1.56 µg/mL (≈ 2.7 µM) | 0.39 µg/mL (≈ 0.674 µM) | 6.25 µg/mL (≈ 10.8 µM) | 6.25 µg/mL (≈ 10.8 µM) | NCCCn1c2cc(-c3cccc(N(CCN)CCN)c3)ccc2c2ccc(-c3cccc(N(CCN)CCN)c3)cc21 [Compound 160] | 451 µg/mL (≈ 779 µM) | 853 µg/mL (≈ 1470 µM) |

The next lines start with the compound.

| Structure (SMILES) | MIC50 [1] | MIC50 (E. Coli ATCC 25922) | MIC50 [2] | MIC50 [3] | MIC50 [5] | EC50 at 1 h [4] | EC50 at 1 h [6] |
| --- | --- | --- | --- | --- | --- | --- | --- |
| N=C(N)NCCc1cc(C#Cc2ccc(C#Cc3cc(CCNC(=N)N)cc(CCNC(=N)N)c3)cc2)cc(CCNC(=N)N)c1 [Compound 199] | 12.5 µg/mL (≈ 20.2 µM) | 1.56 µg/mL (≈ 2.52 µM) | 0.78 µg/mL (≈ 1.26 µM) | 12.5 µg/mL (≈ 20.2 µM) | 1.56 µg/mL (≈ 2.52 µM) | 116 µg/mL (≈ 188 µM) | 135 µg/mL (≈ 218 µM) |
| O=C(Nc1ccc(-c2ccc(N3CCNCC3)nc2)cc1F)Nc1ccc(-c2ccc(N3CCNCC3)nc2)cc1F [Compound 141] | 12.5 µg/mL (≈ 21.9 µM) | 6.25 µg/mL (≈ 11 µM) | 25 µg/mL (≈ 43.8 µM) |  | 25 µg/mL (≈ 43.8 µM) | 404 µg/mL (≈ 708 µM) | 24.4 µg/mL (≈ 42.8 µM) |
| NCCCOc1cc(OCCCN)cc(-c2ccc(C(=O)c3ccc(-c4cc(OCCCN)cc(OCCCN)c4)cc3)cc2)c1 [Compound 165] | 25 µg/mL (≈ 39.9 µM) | 50 µg/mL (≈ 79.8 µM) | 6.25 µg/mL (≈ 9.97 µM) | 25 µg/mL (≈ 39.9 µM) | > 50 µg/mL | 357 µg/mL (≈ 570 µM) | 355 µg/mL (≈ 566 µM) |
| N=C(N)NCCc1ccc(C#Cc2cccc(C#Cc3ccc(CCNC(=N)N)c(CCNC(=N)N)c3)c2)cc1CCNC(=N)N [Compound 195] | 12.5 µg/mL (≈ 20.2 µM) | 3.13 µg/mL (≈ 5.06 µM) | 0.78 µg/mL (≈ 1.26 µM) | 1.56 µg/mL (≈ 2.52 µM) | 6.25 µg/mL (≈ 10.1 µM) | 95.8 µg/mL (≈ 155 µM) | 163 µg/mL (≈ 263 µM) |
| NCCCn1c2cc(Br)ccc2c2ccc(Br)cc21 [Compound 106] | 100 µg/mL (≈ 262 µM) | 12.5 µg/mL (≈ 32.7 µM) | 12.5 µg/mL (≈ 32.7 µM) |  | 25 µg/mL (≈ 65.4 µM) | 107 µg/mL (≈ 280 µM) | 61.9 µg/mL (≈ 162 µM) |
| O=C(c1cc(C(=O)N2CCNCC2)cc(-c2ccc3sc4ccc(-c5cc(C(=O)N6CCNCC6)cc(C(=O)N6CCNCC6)c5)cc4c3c2)c1)N1CCNCC1 [Compound 170] | > 100 µg/mL | > 100 µg/mL | > 100 µg/mL | > 100 µg/mL | > 100 µg/mL | 436 µg/mL (≈ 555 µM) | > 1000 µg/mL |
| NCCCOc1cc(OCCCN)cc(-c2ccc3c(c2)C(=O)c2cccc(-c4cc(OCCCN)cc(OCCCN)c4)c2CC3)c1 [Compound 155] | 25 µg/mL (≈ 38.3 µM) | > 50 µg/mL | 1.56 µg/mL (≈ 2.39 µM) | > 50 µg/mL | > 50 µg/mL | 177 µg/mL (≈ 271 µM) | 330 µg/mL (≈ 505 µM) |
| NCCc1ccc(C#Cc2cccc(C#Cc3ccc(CCN)c(CCN)c3)c2)cc1CCN [Compound 194] | 12.5 µg/mL (≈ 27.7 µM) | 12.5 µg/mL (≈ 27.7 µM) | 1.56 µg/mL (≈ 3.46 µM) | 6.25 µg/mL (≈ 13.9 µM) | > 50 µg/mL | 154 µg/mL (≈ 342 µM) | 192 µg/mL (≈ 426 µM) |
| N=C(N)NCCc1cc(C#Cc2cccc(C#Cc3cc(CCNC(=N)N)cc(CCNC(=N)N)c3)c2)cc(CCNC(=N)N)c1 [Compound 189] | 6.25 µg/mL (≈ 10.1 µM) | 1.56 µg/mL (≈ 2.52 µM) | 3.9 to 7.8 µg/mL (≈ 6.3 to 12.6 µM) | 6.25 µg/mL (≈ 10.1 µM) | 1.56 µg/mL (≈ 2.52 µM) | 131 µg/mL (≈ 212 µM) | 256 µg/mL (≈ 413 µM) |
| NCCCOc1cc(OCCCN)cc(-c2ccc3sc4ccc(-c5cc(OCCCN)c(OCCCN)c(OCCCN)c5)cc4c3c2)c1 [Compound 182] | 12.5 µg/mL (≈ 17.8 µM) | 6.25 µg/mL (≈ 8.9 µM) | 1.56 µg/mL (≈ 2.22 µM) | 6.25 µg/mL (≈ 8.9 µM) | 25 µg/mL (≈ 35.6 µM) | 78.2 µg/mL (≈ 111 µM) | 173 µg/mL (≈ 246 µM) |
| NCCc1cc(C#Cc2cc(C#Cc3cc(CCN)cc(CCN)c3)c(F)cc2F)cc(CCN)c1 [Compound 192] | 50 µg/mL (≈ 103 µM) | 12.5 µg/mL (≈ 25.7 µM) | 3.13 µg/mL (≈ 6.43 µM) | 12.5 µg/mL (≈ 25.7 µM) | > 50 µg/mL | 542 µg/mL (≈ 1110 µM) | 554 µg/mL (≈ 1140 µM) |

Source: US20140308317A1, “Polymeric Compounds And Methods Of Making And Using The Same” (CELLCEUTIX CORPORATION, priority 2012, published 2014)
